Earlier results in patent publication US10758465B2, “Synephrine compositions” (Follea International, priority 2017, dated 2020).

What was measured:
[1] = test system: alpha1-adrenoceptors; details: postjunctional alpha1-adrenoceptors
[2] = test system: alpha2-adrenoceptors; details: postjunctional alpha2-adrenoceptors

## CNC[C@@H](O)c1ccc(O)cc1 [S-(+)-synephrine]
[1]
  potency relative to the (−) form: one to two orders of magnitude less
[2]
  potency relative to the (−) form: one to two orders of magnitude less
